Earlier results as cited in patent US20170068777A1, “METHODS OF IDENTIFYING AND F[…] COMPOUNDS THAT MODULATE PHENOTYPE-RELATED TARGETS” (Tufts University, priority 2015, published 2017).

Conditions: shown experimentally in the literature

Structure (SMILES)	effect on TG levels
CC1(C(=O)O)CCC2(C)CCC3(C)C(=CCC4C5(C)CCC(O)C(C)(CO)C5CCC43C)C2C1 (centres unmarked) [Azukisapogenol]	lower TG levels
CC1(C)[C@@H](O)CC[C@]2(C)[C@H]3C(=O)C=C4[C@@H]5C[C@@](C)(C(=O)O)CC[C@]5(C)CC[C@@]4(C)[C@]3(C)CC[C@@H]12 [Glycyrrhetic acid]	lower TG levels
